Assay results: article PMC7703437, “In Vitro Hepatic Metabolism of Curcumin Diethyl Disuccinate by Liver S9 from Different Animal Species” (Frontiers in Pharmacology, 2020)
Values joined by “and” are separate entries in the source; they are usually repeats but may differ in a detail not shown here. Equal entries are not always repeated.

Assays:
[1] = In vitro metabolism profiling of CDD in dog liver S9 (1 mg/ml); assay type: in vitro ADME, dog (beagle); settings: beagle, liver S9; dog LS9 1 mg/ml; read-out: t 1/2 (CDD)
Procedure: The metabolism profiles of CDD were investigated against HLS9, MLS9, DLS9, and RLS9. A stock solution of CDD was prepared at 150 µM in 50% acetonitrile in water before use. The metabolism study was initiated by spiking 735 µl of preincubated LS9 with 15 µl of CDD stock solution, and the mixture was subsequently incubated at 37°C. The final concentrations of CDD and LS9 were 3 μM and 1 mg/ml, respectively. A 50-µl aliquot from the mixture was collected at 0.5, 1, 2, 3, 4, 5, 10, 15, 30, 45, 60, 90, and 120 min and immediately mixed with 100 µl of ice-cold acetonitrile containing 0.45 µM of internal standard DMC to terminate the metabolic reaction. […] The sample at the initial time point (0 min) was prepared as the other samples, except that heat-inactivated HLS9, MLS9, DLS9, and RLS9 (80°C for 20 min; 1 mg/ml protein) were used.
The UHPLC system consisted of an Agilent series 1290 quaternary pump with an online degasser, autosampler, column oven, and diode array detector. The mobile phase was composed of (A) 0.1% (v/v) formic acid in acetonitrile and (B) 0.1% (v/v) formic acid in water. Each solution was filtered through a nylon filter (pore size, 0.22 µm; MS® Membrane Filters; Membrane Solutions, United States) before use. The mobile phase flow rate was kept at 1.2 ml/min in a gradient mode using the following elution program: 0–3.0 min, initial A-B (40:60, v/v); 4.5–7.0 min, isocratic elution A-B [50:50, (v/v); 8.5–11.0 min, isocratic elution A-B (60:40, v/v); and 12.0–17.0 min, isocratic elution A-B (40:60, v/v)]. CDD, curcumin, and MSCUR in the supernatant were partitioned using a C8 column (4.6 mm × 50 mm, 2.7 µm; HALO, Advanced Materials Technology, United States) with reference to DMC. The detection wavelength was set at 400 nm (λ max(CDD) = 400 nm, λ max(curcumin) = 427 nm, λ max(MSCUR) = 418 nm, and λ max(DMC) = 421 nm). The column was maintained at 35°C throughout the run, and the supernatant injection volume was set at 20 µl.
The concentrations of CDD, curcumin, and MSCUR in the supernatant were determined from the standard plots, which were prepared by spiking individual working solutions of the compounds to heat-inactivated HLS9, MLS9, DLS9, and RLS9 ([Alcorn et al., 2007]; [Montoro-Garcia et al., 2009]; [Singh et al., 2010]). These working standards were extracted with 100 µl of ice-cold acetonitrile containing 0.45 µM of DMC and then 120 μl of the supernatant was diluted with 40 μl of water prior to the UHPLC analysis. The peak area ratios of CDD, curcumin, and MSCUR to the internal standard were computed against linear concentration ranges of 0.025–4.5 µM CDD, 0.025–4.5 µM curcumin, and 0.0125–0.75 µM MSCUR, respectively, with the coefficient of determination (r^2) values greater than 0.99.
The percent content of CDD and the metabolites formed upon its incubation with LS9, namely, curcumin and MSCUR, was plotted against incubation time.
The following equations were adopted to describe the changes in CDD and MSCUR content over time (t): A = A0e^−k1t (2) B= k1A0/k2−k1(e^−k1t−e^−k2t), (3) where A0 is the CDD concentration at time 0, k 1 is the degradation rate constant of CDD, and k 2 is the degradation rate constant of MSCUR. k 1 and k 2 were determined by using Eqs. 2 and 3, respectively, with nonlinear regression analysis using the SOLVER function of Microsoft Excel for Office 365 MSO (16.0.12527.20986) ([Brown, 2001]). The half-life (t 1/2) was calculated using Eq. 4: t1/2=0.693/k (4)
The in vitro intrinsic clearance (CLint,in vitro) of CDD and MSCUR in LS9 was calculated using Eq. 5: CLint, in vitro= k × [V]incubation(ml)/[P]incubation(mg protein), (5) where [V]incubation is the incubation volume in ml, and [P]incubation is the amount of LS9. […]

[2] = parameters: method as in Muangnoi et al., 2019b; settings: ref Muangnoi et al., 2019b; cited from earlier work
RLS9 = assay: CDD depletion in RLS9 0.02 mg/ml (optimisation of incubation condition); assay type: in vitro ADME, rat; settings: CDD 3 μM
Procedure: (§1) The metabolism profiles of CDD and curcumin formation profile were investigated against HLS9, MLS9, DLS9 and RLS9. A stock solution of CDD was prepared at 150 µM in 50% acetonitrile in water before use. The metabolism study was initiated by spiking a 588 µl pre-incubated LS9 with 12 µl CDD stock solution, and subsequently incubated at 37°C. The final concentrations of CDD and LS9 were 3 µM and 0.02 mg/ml, respectively. A 50 µl aliquot from the mixture was collected at 0.5, 1, 2, 3, 4, 5, 10, 15, 30, 45 and 60 min and was immediately mixed with 100 µl of ice-cold acetonitrile containing 0.45 µM of internal standard DMC to terminate the metabolic reaction. […] Samples of 120 µl of supernatant wee diluted with 40 µl of water prior to UHPLC analysis (Agilent series 1290, Agilent Technology, USA) by means of protocol outlined in Materials and Methods:“In vitro Metabolism Profiling of Curcumin Diethyl Disuccinate”. The sample at 0 min was prepared as other samples except that heat-inactivated HLS9, MLS9, DLS9 and RLS9 (80°C for 20 min; 1 mg/ml protein) were used. Duplicates were conducted for each experiment.
(§2) The peak area ratios of CDD and curcumin to internal standard in the supernatant were determined. The percent contents of CDD and curcumin were plotted against incubation time. The depletion of CDD was calculated with reference to the initial concentration. The saturated substrate was defined as % depletion less than 30.

DLS9 = assay: CDD depletion in DLS9 0.02 mg/ml (optimisation of incubation condition); assay type: in vitro ADME, dog; settings: CDD 3 μM
Procedure: as §1, §2

## CCOC(=O)CCC(=O)Oc1ccc(/C=C/C(=O)/C=C(O)/C=C/c2ccc(OC(=O)CCC(=O)OCC)c(OC)c2)cc1OC [CDD, curcumin diethyl disuccinate]
[1]
  half-life at 3 µM: 52.2 ± 15 s
[2]
  log P: 2.55
RLS9; 0.5 min
  % CDD remaining: 82.81%
  %Depletion of CDD: 17.19%
RLS9; 1 min
  % CDD remaining: 78.14%
RLS9; 1 min (selected incubation time)
  %Depletion of CDD: 22% and 21.86%
RLS9; 2 min
  % CDD remaining: 62.71%
  %Depletion of CDD: 37.29%
RLS9; 3 min
  % CDD remaining: 56.54%
  %Depletion of CDD: 43.46%
RLS9; 4 min
  % CDD remaining: 46.44%
  %Depletion of CDD: 53.56%
RLS9; 5 min
  % CDD remaining: 40.58%
  %Depletion of CDD: 59.42%
DLS9; 0.5 min
  % CDD remaining: 76.77%
DLS9; 0.5 min (selected incubation time)
  %Depletion of CDD: 23% and 23.23%
DLS9; 1 min
  % CDD remaining: 66.99%
  %Depletion of CDD: 33.01%
DLS9; 2 min
  % CDD remaining: 49.79%
  %Depletion of CDD: 50.21%
DLS9; 3 min
  % CDD remaining: 42.26%
  %Depletion of CDD: 57.74%
DLS9; 4 min
  % CDD remaining: 31.30%
  %Depletion of CDD: 68.70%
DLS9; 5 min
  % CDD remaining: 25.06%
  %Depletion of CDD: 74.94%
